The assay relates to SH-Ratte. Put plainly: Blood pressure lowering in conscious spontaneously hypertensive rats (tail cuff, oral dosing). Format: in vivo. The note with it: Rattus norvegicus; SH-Ratte: Blutdrucksenkung >15 mm; intragastral ("oral") in Tylosesuspension; read-out: Grenzdosis. The source says: Die Substanzen wurden an der wachen Ratte auf ihre blutdrucksenkende Wirkung hin untersucht. An wachen Ratten mit genetisch bedingtem Hochdruck ("spontan hypertone Ratten" des Okamoto-Stammes) wird der arterielle Blutdruck mit der "Schwanz-Manchette" in definierten Zeitabständen nach Substanzgabe unblutig gemessen. Die zu prüfenden Substanzen werden aufgeschwemmt in einer Tylosesuspension intragastral ("oral") per Schlundsonde in verschiedenen Dosen appliziert. Die erfindungsgemäßen Verbindungen senken den arteriellen Blutdruck der Hochdruckratten in klinisch relevanter Dosierung.

Structures are written as SMILES.

Regarding `CC(=O)Oc1ccccc1C(=O)OCCOC(=O)C1=C(C)NC(C)=C(C(=O)OC(C)C)C1c1ccccc1C(F)(F)F` (stereo not drawn) [Beispiel 3], the minimal effective dose was 10 mg/kg.

Turning to `CC(=O)Oc1ccccc1C(=O)OCCOC(=O)C1=C(C)NC(C)=C(C(=O)OC(C)C)C1c1ccccc1[N+](=O)[O-]` (stereo not drawn) [Beispiel 2], the minimal effective dose is 30 mg/kg.

`COC(=O)C1=C(C)NC(C)=C(C(=O)OCCOC(=O)c2ccccc2OC(C)=O)C1c1cccc(Cl)c1Cl` (stereo not drawn) [Beispiel 6, 5-[2-(2-Acetoxybenzoyloxy)ethoxycarbonyl]-2,6-dimethyl-4-(2,3-dichlorphenyl)-1,4-dihydropyridin-3-carbonsäuremethylester]: the minimal effective dose came out at 3 mg/kg.

Regarding `CC(=O)Oc1ccccc1C(=O)OCCOC(=O)C1=C(C)NC(C)=C(C(=O)OC(C)C)C1c1ccccc1Cl` (stereo not drawn) [Beispiel 4], the minimal effective dose is 30 mg/kg.

Turning to `COC(=O)C1=C(C)NC(C)=C(C(=O)OCCOC(=O)c2ccccc2OC(C)=O)C1c1ccccc1C(F)(F)F` (stereo not drawn) [Beispiel 1, 5-[2-(2-Acetoxybenzoyloxy)ethoxycarbonyl]-2,6-dimethyl-4-(2-trifluormethylphenyl)-1,4-dihydropyridin-3-carbonsäuremethylester], the minimal effective dose was 10 mg/kg.

Consider `CCOC(=O)C1=C(C)NC(C)=C(C(=O)OCCOC(=O)c2ccccc2OC(C)=O)C1c1ccccc1C(F)(F)F` (stereo not drawn) [Beispiel 5, 5-[2-(2-Acetoxybenzoyloxy)ethoxycarbonyl]-2,6-dimethyl-4-(2-trifluormethylphenyl)-1,4-dihydropyridin-3-carbonsäureethylester], for which the minimal effective dose was 10 mg/kg.

The record behind these values is EP0591765A2, “1,4-Dihydropyridine-alkoxy and alkylamino esters as antihypertensives” (BAYER AG, priority 1992, dated 1994).
